Source: the supplement of paper PMC13380429

Key:
[1] = tested on: A549-ACE2 infected with SARS-CoV-2; assay: morphology score (similarity to uninfected cells); higher = more like uninfected cells; conditions: 24 h
[2] = tested on: A549-ACE2 infected with SARS-CoV-2; assay: SARS-CoV-2 infection rate relative to DMSO; higher = more infection; conditions: 24 h
[3] = tested on: A549-ACE2 infected with SARS-CoV-2; assay: cell count relative to DMSO; higher = less toxic; conditions: 24 h
U2OS [4] = assay: cell viability relative to DMSO; higher = less toxic; conditions: 72 h
Caco-2 [5] = assay: as above; conditions: 72 h
HepG2 [6] = assay: as above; conditions: 72 h
Calu-3 [7] = assay: as above; conditions: 72 h
Vero E6 [8] = assay: as above; conditions: 72 h
U2OS [9] = assay: drug sensitivity score (DSS) for viability; higher = more toxic; extreme values may be limits of the assay; conditions: 72 h
Caco-2 [10] = assay: as above; conditions: 72 h
HepG2 [11] = assay: as above; conditions: 72 h
Calu-3 [12] = assay: as above; conditions: 72 h
Vero E6 [13] = assay: as above; conditions: 72 h
U2OS [14] = assay: relative viability EC50 (midpoint between 100% and the lowest measured viability); higher = less toxic; conditions: 72 h
Caco-2 [15] = assay: as above; conditions: 72 h
HepG2 [16] = assay: as above; conditions: 72 h
Calu-3 [17] = assay: as above; conditions: 72 h
Vero E6 [18] = assay: as above; conditions: 72 h
A549-ACE2 = assay: drug-induced phospholipidosis relative to tamoxifen; higher = more phospholipidosis

Cc1csc(NC(=O)CSc2ccc(-c3ccccc3)nn2)n1
Conditions	SARS-CoV-2 infection rate, [2] [%]	cell count, [3] [%]	cell viability, Caco-2 [5] [%]	cell viability, Calu-3 [7] [%]	cell viability, HepG2 [6] [%]	cell viability, U2OS [4] [%]	cell viability, Vero E6 [8] [%]	morphology score, [1]
1 nM	–	–	92.1	85	97.8	98	101	–
10 nM	–	–	93.4	99.1	109	97.3	102	–
100 nM	–	–	103	104	90.4	102	99.1	–
0.3 µM	105	97	–	–	–	–	–	-0.03
1000 nM	–	–	97	99.3	89.1	99.3	105	–
3 µM	88	97	–	–	–	–	–	0.29
10 µM	92	107	–	–	–	–	–	0.25
10000 nM	–	–	104	108	87.4	104	94.5	–
30 µM	84	100	–	–	–	–	–	0.25

Conditions	drug sensitivity score	relative viability EC50 [µM]
Caco-2 [10]	0	–
Caco-2 [15]	–	> 10
Calu-3 [12]	0	–
Calu-3 [17]	–	> 10
HepG2 [11]	1.2	–
HepG2 [16]	–	> 10
U2OS [9]	0	–
U2OS [14]	–	> 10
Vero E6 [13]	0	–
Vero E6 [18]	–	> 10

drug-induced phospholipidosis [%], A549-ACE2
Conditions	0.3 µM	0.833333 µM	3.33333 µM	6.66667 µM	10 µM	30 µM
24 h	1.93	-1.81	-0.96	2.15	1.89	7.11
48 h	2.87	0.35	1.94	5.23	4.85	15.6
72 h	2.21	0.253	3.17	3.1	6.16	24.6

O=C(COc1ccc(Cl)cc1)N[C@H]1CC[C@H](NC(=O)COc2ccc(Cl)cc2)CC1 [ISRIB]
Conditions	SARS-CoV-2 infection rate, [2] [%]	cell count, [3] [%]	cell viability, Caco-2 [5] [%]	cell viability, Calu-3 [7] [%]	cell viability, HepG2 [6] [%]	cell viability, U2OS [4] [%]	cell viability, Vero E6 [8] [%]	morphology score, [1]
1 nM	–	–	98.5	107	98.4	99.7	92.2	–
10 nM	–	–	97.1	88.2	100	96.2	98.4	–
100 nM	–	–	95.1	101	105	99	97.2	–
0.3 µM	100	99	–	–	–	–	–	-0.01
1000 nM	–	–	96.6	101	100	96	95.2	–
3 µM	96	103	–	–	–	–	–	0.03
10 µM	103	99	–	–	–	–	–	0.01
10000 nM	–	–	106	99.1	96.3	99.2	91.3	–
30 µM	108	99	–	–	–	–	–	-0.2

Conditions	drug sensitivity score	relative viability EC50 [µM]
Caco-2 [10]	0	–
Caco-2 [15]	–	> 10
Calu-3 [12]	0	–
Calu-3 [17]	–	> 10
HepG2 [11]	0	–
HepG2 [16]	–	> 10
U2OS [9]	0	–
U2OS [14]	–	> 10
Vero E6 [13]	0	–
Vero E6 [18]	–	> 10

drug-induced phospholipidosis [%], A549-ACE2
Conditions	0.3 µM	0.833333 µM	3.33333 µM	6.66667 µM	10 µM	30 µM
24 h	-0.51	0.36	-2.23	-2.98	3.29	-1.76
48 h	0.57	-0.91	-1.5	0.01	2.91	2.54
72 h	-0.626	-0.0303	-1	1.31	3.63	5.83

O=c1cc(N2CCOCC2)oc2c(-c3cccc4c3sc3ccccc34)cccc12 [NU-7441]
Conditions	SARS-CoV-2 infection rate, [2] [%]	cell count, [3] [%]	cell viability, Caco-2 [5] [%]	cell viability, Calu-3 [7] [%]	cell viability, HepG2 [6] [%]	cell viability, Vero E6 [8] [%]	morphology score, [1]
1 nM	–	–	109	101	108	104	–
10 nM	–	–	89.2	110	108	102	–
0.1 µM	101	96	–	–	–	–	-0.14
100 nM	–	–	100	98.7	116	102	–
0.3 µM	101	94	–	–	–	–	-0.23
1 µM	74	105	–	–	–	–	0.22
1000 nM	–	–	71.2	111	88.4	85.4	–
3 µM	38	98	–	–	–	–	0.53
10000 nM	–	–	56.9	61	32.7	14.4	–

Conditions	drug sensitivity score	relative viability EC50 [µM]
Caco-2 [10]	5.6	–
Calu-3 [12]	1.4	–
HepG2 [11]	5.6	–
HepG2 [16]	–	1.87
Vero E6 [13]	7.2	–
Vero E6 [18]	–	1.87

drug-induced phospholipidosis [%], A549-ACE2
Conditions	0.3 µM	0.833333 µM	3.33333 µM	6.66667 µM	10 µM	30 µM
24 h	-4.01	-8.02	17.6	23.6	28.1	26.9
48 h	-3.93	-5.23	26.4	–	–	–
72 h	-2.08	-7.5	–	–	–	–

C=C1C(=O)[C@]23[C@H](O)[C@H]1CC[C@H]2[C@@]12CO[C@]3(O)[C@@H](O)[C@@H]1C(C)(C)CC[C@@H]2O [Oridonin (Isodonol)]
Conditions	SARS-CoV-2 infection rate, [2] [%]	cell count, [3] [%]	cell viability, Caco-2 [5] [%]	cell viability, HepG2 [6] [%]	cell viability, U2OS [4] [%]	cell viability, Vero E6 [8] [%]	morphology score, [1]
1 nM	–	–	97.7	97.4	102	99.9	–
10 nM	–	–	107	103	95.1	98.7	–
0.1 µM	100	94	–	–	–	–	-0.14
100 nM	–	–	103	91.8	98.3	97.9	–
0.3 µM	99	101	–	–	–	–	-0.02
1 µM	104	99	–	–	–	–	-0.18
1000 nM	–	–	93.3	96.2	94.4	95.4	–
3 µM	101	98	–	–	–	–	-0.01
10000 nM	–	–	65.4	42.8	11.8	79.7	–

Conditions	drug sensitivity score	relative viability EC50 [µM]
Caco-2 [10]	2.7	–
HepG2 [11]	3.7	–
HepG2 [16]	–	2.63
U2OS [9]	5.7	–
U2OS [14]	–	2.66
Vero E6 [13]	1.2	–
Vero E6 [18]	–	> 10

drug-induced phospholipidosis [%], A549-ACE2
Conditions	0.3 µM	0.833333 µM	3.33333 µM	6.66667 µM	10 µM	30 µM
24 h	5.1	-1.43	0.65	11	16.8	43.1
48 h	5.34	-3.46	-0.285	6.67	13	–
72 h	4.41	-5.79	-4.81	-1.61	4.49	–
